The test system of the data set is primary rat hepatocytes. In words: Cytotoxicity (CellTiter-Glo ATP and neutral red uptake). Format: cell-based. The protocol:
The toxicity of GE81112A toward human hepatocellular carcinoma HepG2 HB-8065 (ATCC) cells and freshly isolated primary Sprague-Dawley rat hepatocytes (Charles River) was assessed by using the CellTiter-Glo ATP-monitoring kit (Promega) and by quantifying the ability to store the dye neutral red (neutral red uptake [NRU] solution; Sigma-Aldrich, St. Louis, MO, USA). The assay was conducted in 96-well microtiter plates in a test volume of 200 μL. GE81112A was tested in an 8-fold 1:2 dilution series with a final concentration range of […]. HepG2 cells or primary hepatocytes were maintained at 37°C in 5% CO2 in DMEM-F-12 medium containing 1% nonessential amino acids, 1% sodium pyruvate, and 10% heat-inactivated FCS. Prior to each test, 100 μL of culture medium was added to each well (each containing about 20,000 cells), and the plates were incubated for 16 h as described above. GE81112A was diluted in culture medium to obtain appropriate concentrations and was added to the wells as six replicates. […] After incubation for 24 h as described above, cell viability was calculated either by cell lysis and subsequent luminometric quantification of the ATP concentration in each sample or by measurement of the amount of neutral red taken up by the cells. NRU was measured at 540 nm (Tecan Genios Pro) after 3 h of incubation with NRU solution and subsequent cell lysis. […]
On the technique in general: Cellular ATP, detected with luciferase, serves as a proxy for viable cell number.

For the compound `NC(=O)OC[C@@H](O)C[C@H](NC(=O)[C@H]1NCCC[C@H]1O)C(=O)N[C@@H](Cc1c[nH]cn1)C(=O)N[C@H](C(=O)O)[C@H](O)c1cnc(Cl)[nH]1` [GE81112A], the “No observed effect concentration (NOEC)” value (24 h, highest concentration with cell viability of >80%) was 15.6 µM. In addition, under “Table 3 summary rating”, the “Overview finding: Cytotoxicity (rat hepatocytes/HepG2 cells)” value was “+/− (to be monitored)”.

The record behind these values is article PMC10269895 (Microbiology Spectrum, 2023).
